In US8546380B2, “Aminodihydrothiazine derivatives” (Shionogi & Co., Ltd., priority 2005, dated 2013) one finds IC50 data, which are given here for 57 molecules.

Broadly, the IC50 is the concentration at which inhibition is half-maximal.

The target of one assay is recombinant human BACE-1 protein (Homo sapiens (Human), UniProt P56817). In words: Measurement of Inhibition of β-Secretase Activity. Format: biochemical. Particulars: fluorescence-quenched peptide substrate 18 nM, BACE-1 7.4 nM, 3 h at 30° C., pH5.0; read-out: IC50 value. The method, then: Zero point five μL of the test compounds (dissolved in N,N′-dimethylsulfoxide) were incubated with 48.5 μL of the fluorescence-quenched peptide substrate solution (Biotin-XSEVNLDAEFRHDSGC-Eu:X=ε-amino-n-capronic acid, Eu=Europium cryptate) and 1 μL of recombinant human BACE-1 protein (R&D systems) for 3 h at 30° C. in the 96 well half-area plate (black color plate, Costar). The substrate peptide was synthesized by reacting with Biotin-XSEVNLDAEFRHDSGC (Peptide Institute) and Cryptate TBPCOOH mono SMP (CIS bio international). […] The enzymatic reaction was performed in sodium acetate buffer (50 mM sodium acetate (pH5.0), 0.008% Triton X-100). After the reaction, a 50 μL of 8.0 μg/mL Streptavidin-XL665 (CIS bio international) dissolved in phosphate buffer (150 mM K2HPO4—KH2PO4 (pH 7.0), 0.008% Triton X-100, 0.8 M KF) was add to each well and incubated for 1 h at 30° C.
Chain of recombinant human BACE-1 protein (P56817 46-501): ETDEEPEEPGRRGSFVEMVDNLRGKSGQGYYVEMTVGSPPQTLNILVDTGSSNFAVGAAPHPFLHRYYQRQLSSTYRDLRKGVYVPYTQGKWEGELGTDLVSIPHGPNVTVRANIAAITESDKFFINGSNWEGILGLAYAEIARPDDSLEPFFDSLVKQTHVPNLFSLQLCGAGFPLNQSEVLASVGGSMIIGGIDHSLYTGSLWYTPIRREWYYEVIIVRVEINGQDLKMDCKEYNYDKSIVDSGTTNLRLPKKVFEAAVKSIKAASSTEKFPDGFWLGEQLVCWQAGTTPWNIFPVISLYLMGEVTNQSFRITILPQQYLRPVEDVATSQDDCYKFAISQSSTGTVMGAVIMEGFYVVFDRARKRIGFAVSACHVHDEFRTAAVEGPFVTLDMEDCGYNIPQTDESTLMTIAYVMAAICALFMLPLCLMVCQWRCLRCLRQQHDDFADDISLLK
As to `CC1(c2cccc(CCC(=O)Nc3ccc(F)cc3)c2)CCSC(N)=N1` (stereo not drawn) [Compound 677], the IC50 is less than 100 µM. For the molecule `CC1(c2cccc(NC(=O)CCNC(=O)c3ccc(F)cc3)c2)CCSC(N)=N1` (stereo not drawn) [Compound 216], the IC50 is less than 100 µM.

Consider `CC1(c2cccc(NC(=O)CCNC(=O)c3ccc(Cl)cn3)c2)CCSC(N)=N1` (stereo not drawn) [Compound 134], for which the IC50 is less than 100 µM. Regarding `CCc1ccc(C(=O)Nc2cccc(C3(C)CCSC(N)=N3)c2)cc1` (stereo not drawn) [Compound 919], the IC50 is less than 100 µM. Same read-out and setting: the figure for `Cc1ccc(CO/N=C/c2cccc(C3(C)CCSC(N)=N3)c2)cc1` (stereo not drawn) [Compound 719] is less than 100 µM; for `Cc1ccc(CNc2cccc(C3(C)CCSC(N)=N3)c2)cc1` (stereo not drawn) [Compound 259] it is less than 100 µM; for `CC1(c2cccc(CCC(=O)Nc3ccc(Cl)cc3)c2)CCSC(N)=N1` (stereo not drawn) [Compound 341] it is less than 100 µM. Regarding `Cc1cccnc1C(=O)Nc1cccc(C2(C)CCSC(N)=N2)c1` (stereo not drawn) [Compound 240], the IC50 was less than 100 µM.

Take `CC1(c2cccc(NC(=O)c3ncc(Cl)cc3N)c2)CCSC(N)=N1` (stereo not drawn) [Compound 472]: the IC50 was less than 100 µM.

For the molecule `CC1(c2cccc(NC(=O)c3ccc4nonc4c3)c2)CCSC(N)=N1` (stereo not drawn) [Compound 652], the IC50 is less than 100 µM.

Consider `CC1(c2cccc(NC(=O)c3cc(Br)ccc3Cl)c2)CCSC(N)=N1` (stereo not drawn) [Compound 986], for which the IC50 is less than 100 µM. Same read-out and setting: with `CC1(c2cccc(C(=O)Nc3ccc(Cl)cn3)c2)CCSC(NC(=N)N)=N1` (stereo not drawn) [Compound 189] the figure was less than 100 µM. Consider `CC1(c2cccc(NC(=O)c3cccc(Cl)c3)c2)CCSC(N)=N1` (stereo not drawn) [Compound 568], for which the half-inhibitory concentration (IC50) is less than 100 µM. `COc1cnc(C(=S)Nc2cccc(C3(C)CCSC(N)=N3)c2)cn1` (stereo not drawn) [Compound 1270]: the IC50 is less than 100 µM. For the molecule `CC1(c2cccc(NC(=O)c3ccc(Cl)cc3Cl)c2)CCSC(N)=N1` (stereo not drawn) [Compound 182], the IC50 was less than 100 µM. As for `CC1(c2cccc(NC(=O)c3ccc(Cl)nc3Cl)c2)CCSC(N)=N1` (stereo not drawn) [Compound 865], the IC50 was less than 100 µM.

With `CC1(c2ccc(F)c(C(=O)Nc3nccs3)c2)CCSC(N)=N1` (stereo not drawn) [Compound 251], the IC50 was less than 100 µM. On the same count and under the same terms, the figure for `CC1(c2cccc(NC(=O)c3cc(CO)on3)c2)CCSC(N)=N1` (stereo not drawn) [Compound 894] is less than 100 µM; for `COc1ccc(C(=O)Nc2cccc(C3(C)CCSC(N)=N3)c2)cc1` (stereo not drawn) [Compound 300] it is less than 100 µM. The same measure, in the same setting: with `CC1(c2ccc(F)c(NC(=O)c3ccccc3C(F)(F)F)c2)CCSC(N)=N1` (stereo not drawn) [Compound 345] the figure was less than 100 µM; with `CC1(c2ccc(F)c(NS(=O)(=O)c3ccc(Cl)cc3)c2)CCSC(N)=N1` (stereo not drawn) [Compound 493], less than 100 µM; with `CC1(c2cccc(NC(=O)c3ccc(NCc4ccccc4)cn3)c2)CCSC(N)=N1` (stereo not drawn) [Compound 608], less than 100 µM. Regarding `CC1(c2ccc(F)c(NC(=O)c3ccccn3)c2)CCSC(N)=N1` (stereo not drawn) [Compound 637], the IC50 was less than 100 µM. As to `CC1(c2cccc(NC(=O)c3ccc(Cl)cc3F)c2)CCSC(N)=N1` (stereo not drawn) [Compound 378], the IC50 is less than 100 µM. Same read-out and setting: the figure for `COC(=O)c1ccc(C(=O)Nc2cccc(C3(C)CCSC(N)=N3)c2)cc1` (stereo not drawn) [Compound 328] is less than 100 µM; for `COc1cnc(C(=O)Nc2cccc(C3(C)CCSC(N)=N3)c2)c(N)n1` (stereo not drawn) [Compound 906] it is less than 100 µM; for `CC1(c2cccc(NC(=O)c3ncc(Cl)cc3Cl)c2)CCSC(N)=N1` (stereo not drawn) [Compound 646] it is less than 100 µM. Same read-out and setting: the figure for `CNc1nc(OC)cnc1C(=O)Nc1cccc(C2(C)CCSC(N)=N2)c1` (stereo not drawn) [Compound 353] is less than 100 µM; for `CC(C)Oc1ccc(C(=O)Nc2cccc(C3(C)CCSC(N)=N3)c2)nc1` (stereo not drawn) [Compound 299] it is less than 100 µM; for `Cc1oc(-c2ccc(Cl)cc2)cc1C(=O)Nc1cc(C2(C)CCSC(N)=N2)ccc1F` (stereo not drawn) [Compound 397] it is less than 100 µM. For `CC1=NC(C)(c2cccc(CCC(=O)Nc3ccccc3)c2)CCS1` (stereo not drawn) [Compound 732], the IC50 is less than 100 µM. Consider `CCN(C(=O)c1ccc(Cl)cn1)c1cccc(C2(C)CCSC(N)=N2)c1` (stereo not drawn) [Compound 941], for which the IC50 is less than 100 µM. Still for that read-out and setting: with `CC1(c2cccc(NC(=O)c3ccc(I)cc3)c2)CCSC(N)=N1` (stereo not drawn) [Compound 201] the figure was less than 100 µM; with `C[C@@H](NC(=O)c1cc(NC(=O)c2ccc(Cl)cn2)cc(C2(C)CCSC(N)=N2)c1)c1ccccc1` (stereo partly drawn) [Compound 1099], less than 100 µM. The same measure, in the same setting: with `CC1(c2cccc(NCc3ccc(F)cc3)c2)CCSC(N)=N1` (stereo not drawn) [Compound 1243] the figure was less than 100 µM; with `CC1(c2cccc(NC(=O)c3cnccc3C(F)(F)F)c2)CCSC(N)=N1` (stereo not drawn) [Compound 1063], less than 100 µM; with `CC1(c2cccc(NC(=O)c3ccc(C#N)cc3F)c2)CCSC(N)=N1` (stereo not drawn) [Compound 517], less than 100 µM. Take `CC1(c2cc(NC(=O)c3ncc(Cl)cc3N)ccc2F)CCSC(N)=N1` (stereo not drawn) [Compound 820]: the IC50 was less than 100 µM.

With `Cc1cc(C(=O)Nc2cccc(C3(C)CCSC(N)=N3)c2)c(C)o1` (stereo not drawn) [Compound 578], the IC50 was less than 100 µM. The same measure, in the same setting: the figure for `Cn1c(C(=O)Nc2ccc(F)c(C3(C)CCSC(N)=N3)c2)cc2ccccc21` (stereo not drawn) [Compound 586] is less than 100 µM.

On to `CC1(c2cccc(NCCc3ccc(F)cc3)c2)CCSC(N)=N1` (stereo not drawn) [Compound 966], for which the IC50 was less than 100 µM. The same measure, in the same setting: with `COc1ccc(NC(=O)C(F)(F)Oc2cccc(C3(C)CCSC(N)=N3)c2)cc1` (stereo not drawn) [Compound 944] the figure was less than 100 µM; with `CC1(c2cccc(NC(=O)c3ccc4occc4c3)c2)CCSC(N)=N1` (stereo not drawn) [Compound 1009], less than 100 µM; with `CC1(c2cccc(NC(=O)c3ccc(CO)cn3)c2)CCSC(N)=N1` (stereo not drawn) [Compound 80], less than 100 µM. Turning to `Cc1ccc(S(=O)(=O)Nc2cc(C3(C)CCSC(N)=N3)ccc2F)cc1` (stereo not drawn) [Compound 61], the IC50 is less than 100 µM. Still for that read-out and setting: with `COc1ccc(C2(C)CCSC(N)=N2)cc1C(=O)Nc1ccc(Cl)cn1` (stereo not drawn) [Compound 186] the figure was less than 100 µM.

Consider `CC1(c2cc(NC(=O)c3cc4ccccc4[nH]3)ccc2F)CCSC(N)=N1` (stereo not drawn) [Compound 344], for which the IC50 is less than 100 µM. As for `CC1(c2cccc(OCC(=O)Nc3cccc(Oc4ccccc4)c3)c2)CCSC(N)=N1` (stereo not drawn) [Compound 1007], the IC50 is less than 100 µM.

On to `CC1(c2cccc(OCC(=O)Nc3ccc(Cl)c4ccccc34)c2)CCSC(N)=N1` (stereo not drawn) [Compound 723], for which the IC50 is less than 100 µM. Turning to `CC1(c2ccc(NC(=O)c3ccc(Br)cc3)cc2)CCSC(N)=N1` (stereo not drawn) [Compound 278], the IC50 is less than 100 µM. Same read-out and setting: the figure for `CC1(c2ccc(C(=O)NCc3cccc(Cl)c3)cc2)CCSC(N)=N1` (stereo not drawn) [Compound 363] is less than 100 µM.

Regarding `CC1(c2cccc(OCC(=O)Nc3ccc4c(c3)CCC4)c2)CCSC(N)=N1` (stereo not drawn) [Compound 1164], the IC50 was less than 100 µM.

The assay is the same for the next values; noted with them: recombinant human BACE-1 protein, 3 h at 30° C., pH5.0; read-out: IC50 value.
Regarding `Cc1ccc(NC(=O)COc2cccc(C3(C)CCSC(N)=N3)c2)cc1O` (stereo not drawn) [Compound 639], the IC50 was 7.9 µM. Same read-out and setting: with `CC1(c2cc(Br)cc(NC(=O)c3cccs3)c2)CCSC(N)=N1` (stereo not drawn) [Compound 490] the figure was 5.1 µM. As to `CC1(c2cc(NC(=O)c3ccco3)cc(C(F)(F)F)c2)CCSC(N)=N1` (stereo not drawn) [Compound 163], the half-maximal inhibitory concentration (IC50) was found to be 2.28 µM. Turning to `COCc1cc(NC(=O)c2ccc(OC(F)(F)F)cc2)cc(C2(C)CCSC(N)=N2)c1` (stereo not drawn) [Compound 664], the IC50 is 3.64 µM. Regarding `CC1(c2cc(Br)cc(NC(=O)c3ccccn3)c2)CCSC(N)=N1` (stereo not drawn) [Compound 1160], the IC50 was 0.72 µM.
